What was measured:
Pan18 cells [1] = test: Orthotopic PDAC tumor model (Pan18 cells injected in pancreas); assay type: in vivo, mice; conditions: for Survival, bioluminescent tumor growth and tumor weight: FIG. 5H-5J
Method: (§1) Monoclonal antibodies were purchased from BD Biosciences or eBioscience. For intracellular cytokine staining (ICS), cells were first restimulated by PMA/ionomycin for 5 hours in the presence of GolgiStop (BD Biosciences), followed by surface epitope staining markers before being fixed/permeabilized (BD Cytofix/Cytoperm™) and stained with antibodies targeting intracellular antigens. Cells were finally fixed with 1.5% formaldehyde for 10 minutes at room temperature and analyzed on a FACSVerse flow cytometer (BD Bioscience). Data were analyzed using FlowJo software (Tree Star Inc.).
(§2) For Pan18-subcutaneous implantation, 5×10^5 Pan18 cells were administered to wild-type (WT) or IL-17^−/− mice. Genipin (5 mg/kg, 10 mg/kg, or 30 mg/kg, i.p., every two days) was administered to Pan18-bearing mice for 3 weeks. For 3036-subcutanous implantation, 2×10^5 3036 cells were administered to WT mice. Genipin (10 mg/kg, i.p., every two days) and recombinant anti-IL-17 receptor antibody (αIL-17RA) (1 mg/kg, i.v., once a week) were administered to 3036-bearing mice for 3 weeks. Tumor volumes were evaluated every 2 days. For the orthotopic tumor modelling, mice pancreases were injected with 2×10^5 Pan18 cells and monitored for tumor growth weekly using IVIS kinetics imaging system (Caliper Life-Sciences). Genipin (10 mg/kg, i.p., every two days) or αIL-17RA (1 mg/kg, i.v., once a week) was administered 1 week after tumor implantation. Mice were sacrificed 35 days after tumor induction and tumors weighed. For spontaneous pancreatic cancer model, Cre-dependent conditional knockin mutations of KrasG12D Kras^+/LSLG12D mice (B6; 129-Kras2) were obtained from the Mouse Models of Human Cancer Consortium. Elas-CreERT; Kras^+/LSLG12D mice was generated by breeding Kras^+/LSLG12D mice with Elas-CreER mice obtained from the Level Transgenic Center. To induce the expression of Kras^+/LSLG12D in acinar cells, 5-week-old Elas-CreERT; Kras^+/LSLG12D male mice were injected with 100 μl of tamoxifen (20 mg/ml, i.p., three times per week) for 1 week. To induce chronic inflammation and tumors, 100 μl of cerulein (50 μg/ml, i.p., six times per week) (BACHEM) was given to the mice for 3 weeks. Then, the mice were injected with genipin (10 mg/kg, i.p., every two days) and αIL-17RA (1 mg/kg, i.v., once a week) until the end of the experiment, and overall survival was monitored. For genetically CD4/CD8-specific UCP2 deletion tumor modelling, we generated CD4Cre×UCP2^f/f mice by crossing loxP-UCP2-loxP mice with CD4Cre mice. CD4Cre×UCP2^f/f, WT, and loxP control mice underwent subcutaneous implantation of 2×10^5 Pan18 cells, followed by treatment with αIL-17RA (1 mg/kg, i.v., once a week) for 3 weeks. For melanoma modelling, IL-17/-and WT mice underwent subcutaneous implantation of 5×10^5 B16F10 cells, followed by treatment with genipin (10 mg/kg, i.p., every two days) for 3 weeks. For CD8 depletion tumor modelling, IL-17^−/− mice underwent subcutaneous implantation of 2×10^5 Pan18 cells, followed by treatment with genipin (10 mg/kg, i.p., every two days) and CD8 neutralizing antibody (5 mg/kg, i.v., once a week) for 3 weeks. Tumor volumes were evaluated every 3 days.

Th1 cells = test: Cytokine staining of genipin-treated skewed Th1 cells; assay type: cell-based, Mouse; conditions: data not shown
Method: (§3) Mouse lymph nodes and spleens were harvested, and naïve CD4 or CD8 T cells isolated via magnetic bead separation (STEMCELL Technologies) and activated in α-CD3 (10 μg/ml) and α-CD28 (1 μg/ml) pre-coated 96-well plates. Skewing conditions were as follows: Th1 cells/Tc1 cells ([…] 10 μ/ml α-IL-4), Th2 cells/Tc2 cells (20 ng/ml IL-4 and 10 μ/ml α-IFN-γ), Th17 cells/Tc17 cells (20 ng/ml IL-6, 1.25 ng/ml […], 20 ng/ml IL-1β, 20 ng/ml IL-23, 10 μg/ml α-IFN-γ and 10 μg/ml α-IL-4), and Treg cells (5 ng/ml TGF-β, 10 μg/ml α-IFN-γ and 10 μg/ml α-IL-4) in the indicated medium. Cells were cultured for 4-5 days followed by treatment with genipin (3.125 μM, 6.25 μM, 12.5 μM) or DMSO for 12-16 hours.
as §1

Tc1 cells = test: Intracellular cytokine staining / flow cytometry of genipin-treated skewed Tc1 cells; assay type: cell-based, Mouse
Method: as §3, §1

Pan18 cells [2] = test: Tumorigenicity assay, Pan18 subcutaneous implantation (PDAC-bearing mice); assay type: in vivo
Method: as §1, §2
Serum levels of IFN-γ, IL-17, TNF-α, IL-12, IL-6, and TGF-β were measured using commercial enzyme-linked immunosorbent assay (ELISA) kits (BD Biosciences; R&D systems; BioLegend) according to the manufacturer's protocol.
Total protein concentration of the tumor lysates was quantified by a Bradford assay. Tumoral chemokine profiles were determined by analyzing 250 μg protein from the tumor lysates using a Proteome Profiler™ Mouse Chemokine Array Kit (ARY020, R&D Systems) according to the manufacturer's instructions. […]

[3] = IL-17−/− mice, genipin 5 or 10 mg/kg, dose-dependent, FIG. 5C
[4] = IL-17−/− mice, genipin, data not shown
[5] = WT mice, escalating doses of genipin, FIG. 3S

COC(=O)C1=CO[C@@H](O)[C@@H]2C(CO)=CC[C@H]12 [genipin]
Survival, bioluminescent tumor growth and tumor weight (Pan18 cells [1]; IL-17−/− mice, genipin 10 mg/kg i.p. every two days, 3 weeks): significant benefit
Tumor-infiltrating population of Tc1 cells (Pan18 cells [1]; IL-17−/− mice, genipin 10 mg/kg, FIG. 5K): increased
Tumor-infiltrating population of Th1 cells (Pan18 cells [1]; IL-17−/− mice, genipin 10 mg/kg, FIG. 5L): increased
Tumor-infiltrating population of MDSC (Pan18 cells [1]; IL-17−/− mice, genipin 10 mg/kg, FIG. 5N): increased
Survival, bioluminescent tumor growth and tumor weight (Pan18 cells [1]; WT mice, genipin 10 mg/kg alone (singular UCP2 targeting)): no impact
IFN-γ in Th1 cells (Th1 cells): increased IFN-γ
IL-12R expression in Tc1 cells (Tc1 cells; genipin 12.5 μM, FIG. 2O-2P): increased IL-12R expression
IFN-γ production in Tc1 cells (Tc1 cells; genipin 3.125, 6.25, 12.5 μM, 12-16 hours, FIG. 1C-1D): promoted IFN-γ
T-bet expression in IFN-γ+CD8+ T cell population of Tc1 cells (Tc1 cells; genipin-treated Tc1 cells, FIG. 1J): elevated the expression of T-bet
Tumor growth (tumor volume, tumor weight) (Pan18 cells [2]; IL-17−/− mice, genipin 5 or 10 mg/kg i.p. every two days, 3 weeks, FIG. 5A-5B): synergistic effect to inhibit tumor growth
Serum IFN-γ (Pan18 cells [2]; [3]): increased
Serum IL-12 (Pan18 cells [2]; [3]): increased
Serum TNF-α (Pan18 cells [2]; [3]): increased
Numbers of Tc1 cells (Pan18 cells [2]; IL-17−/− mice, genipin, FIG. 5D): increased numbers of Tc1 cells
Numbers of MDSC (Pan18 cells [2]; IL-17−/− mice, genipin, FIG. 5G): decreased numbers of MDSC
IL-17-ablation driven change in CCL2 level (Pan18 cells [2]; [4]): had no effects
IL-17-ablation driven change in CXCL10 level (Pan18 cells [2]; [4]): had no effects
Absolute numbers of Tc1 cells (Pan18 cells [2]; WT mice, escalating doses of genipin i.p. every two days, 3 weeks, FIG. 3A-3C): increases in the absolute numbers
Serum IFN-γ (Pan18 cells [2]; [5]): increased
Serum IL-6 (Pan18 cells [2]; [5]): increased
Serum IL-12 (Pan18 cells [2]; [5]): increased
Serum TNF-α (Pan18 cells [2]; [5]): increased
Serum IL-17 (Pan18 cells [2]; WT mice, escalating doses of genipin, end of experiment, FIG. 3S): increased
Tumorigenesis (tumor volume, tumor weight) (Pan18 cells [2]; WT mice, genipin alone, FIG. 3T-3U): did not suppress tumorigenesis
Absolute numbers of Th1 cells (Pan18 cells [2]; WT mice, genipin i.p. every two days, 3 weeks, FIG. 3D-3F): increases in the absolute numbers
Numbers of Tc17 cells (Pan18 cells [2]; WT mice, genipin i.p. every two days, 3 weeks, FIG. 3G-3I): increased
Numbers of Th17 cells (Pan18 cells [2]; WT mice, genipin i.p. every two days, 3 weeks, FIG. 3J-3L): increased
Numbers of Treg cells in the lymph nodes and spleens (Pan18 cells [2]; WT mice, genipin i.p., FIG. 3M-3O): decreased
Numbers of MDSC in the lymph nodes and spleens (Pan18 cells [2]; WT mice, genipin i.p., FIG. 3P-3R): decreased
Tumor infiltrating MDSC (Pan18 cells [2]; WT mice, genipin i.p., tumor): no changes
Tumor infiltrating Tc1 cells (Pan18 cells [2]; WT mice, genipin i.p., tumor): no changes
Tumor infiltrating Th1 cells (Pan18 cells [2]; WT mice, genipin i.p., tumor): no changes
